# Reference: patent US10544130B2, “Metallo-beta-lactamase inhibitors” (priority 2015, dated 2020)
# Structures can show the parent of a compound that is named as a salt. Where two headings read alike, the source gives them in different places.
# Experiments:
# [1] = system: Klebsiella pneumoniae expressing VIM-1 (IHMA599644); assay type: cell-based; settings: with imipenem 1 μg/ml; 95% inhibition of bacterial growth
# Method in brief: (§1)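 Growth read by absorbance after 22–24 h at 35 °C in CAMHB, with test compound alone or combined with 1 μg/ml imipenem. Inocula came from overnight 35 °C blood-agar colonies, set to a defined OD600 and diluted 1:100. Value is the inhibitor concentration giving synergy.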
# [2] = system: Escherichia coli expressing NDM-1 (CLB30005, CLB30016); assay type: cell-based; settings: with imipenem 1 μg/ml; 95% inhibition of bacterial growth
# Method in brief: as §1
# [3] = system: Pseudomonas aeruginosa PAO1 MB9798 (efflux+, IMP-1); settings: imipenem at 2 μg/mL
# Method in brief: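 Isogenic PAO1 pair (efflux+ MB9798, efflux− MB9799, both IMP-1) tested by microbroth MIC with fixed imipenem and/or ceftazidime, usually at CLSI breakpoint, plus fixed class A/C inhibitor against AmpC. MBL inhibitor titrated; concentration restoring susceptibility recorded and fold difference between strains taken as efflux extent.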
# [4] = system: Serratia marcescens expressing IMP-1 (CL5741); assay type: cell-based; settings: with imipenem 1 μg/ml; 95% inhibition of bacterial growth
# Method in brief: as §1
# [5] = fold difference between efflux + (MB9798) and efflux − (MB9799) strains
# [6] = ratio MITC95 PA 9798/MITC95 PA 9799
Structure (SMILES),Klebsiella pneumoniae (VIM-1) MITC95 [1],Escherichia coli (NDM-1) MITC95 [2],"Efflux ratio [3, 5]",Serratia marcescens (IMP-1) MITC95 [4],"Efflux ratio [3, 6]"
"NC[C@]1(NS(=O)(=O)c2ccc(-c3ccc(N)nc3)c(-c3nn[nH]n3)c2S(N)(=O)=O)CCNC1 [Example 486, (R)-N1-(3-(aminomethyl)pyrrolidin-3-yl)-4-(6-aminopyridin-3-yl)-3-(2H-tetrazol-5-yl)benzene-1,2-disulfonamide dihydrochloride]",1.563 µM,0.7813 µM,2.00,–,–
"NCC(CN)NS(=O)(=O)c1ccc(-c2cccc(-c3cnc(N)[nH]3)n2)c(-c2nnn[nH]2)c1S(N)(=O)=O [Example 438, 4-(6-(2-Amino-1H-imidazol-5-yl)pyridin-2-yl)-N^1-(1,3-diaminopropan-2-yl)-3-(1H-tetrazol-5-yl)benzene-1,2-disulfonamide]",3.125 µM,3.125 µM,–,3.125 µM,–
"NCc1nc2c(-c3ccc(S(=O)(=O)N[C@H](CN)CO)c(S(N)(=O)=O)c3-c3nn[nH]n3)cccc2s1 [Example 363, (R)—N1-(1-amino-3-hydroxypropan-2-yl)-4-(2-(aminomethyl)benzo[d]thiazol-4-yl)-3-(2H-tetrazol-5-yl)benzene-1,2-disulfonamide]",3.125 µM,3.125 µM,–,–,4.00
"NC[C@@H](O)CNS(=O)(=O)c1ccc(-c2ccnc(N)c2)c(-c2nn[nH]n2)c1S(N)(=O)=O [Example 419, (R)-N^1-(3-amino-2-hydroxypropyl)-4-(2-aminopyridin-4-yl)-3-(2H-tetrazol-5-yl)benzene-1,2-disulfonamide]",1.563 µM,0.1953 µM,–,0.7813 µM,–
"NCCNCc1sc(N)nc1-c1cccc(-c2ccc(S(=O)(=O)N[C@@H]3CCNC3)c(S(N)(=O)=O)c2-c2nnn[nH]2)c1 [Example 433, (R)-3′-(2-amino-5-(((2-aminoethyl)amino)methyl)thiazol-4-yl)-N^4-(pyrrolidin-3-yl)-2-(1H-tetrazol-5-yl)-[1,1′-biphenyl]-3,4-disulfonamide]",1.563 µM,0.7813 µM,–,1.563 µM,–
"Nc1nc2c(-c3ccc(S(=O)(=O)N[C@@H]4CNC[C@H]4N)c(S(N)(=O)=O)c3-c3nn[nH]n3)cccc2[nH]1 [Example 424, 4-(2-amino-1H-benzo[d]imidazol-4-yl)-N^1-((3R,4R)-4-aminopyrrolidin-3-yl)-3-(2H-tetrazol-5-yl)benzene-1,2-disulfonamide]",1.563 µM,0.7813 µM,–,1.563 µM,–
"NC[C@H]1CCN(S(=O)(=O)c2ccc(-c3cccc4[nH]c(N)nc34)c(-c3nn[nH]n3)c2S(N)(=O)=O)C1 [Example 253, (R)-3-(2-amino-1H-benzo[d]imidazol-4-yl)-6-((3-(aminomethyl)pyrrolidin-1-yl)sulfonyl)-2-(2H-tetrazol-5-yl)benzenesulfonamide]",1.563 µM,1.563 µM,–,0.7813 µM,–
"NCCNc1cc(-c2ccc(S(=O)(=O)NCCN)c(S(N)(=O)=O)c2-c2nn[nH]n2)ccn1 [Example 456, N1-(2-Aminoethyl)-4-(2-((2-aminoethyl)amino)pyridin-4-yl)-3-(2H-tetrazol-5-yl)benzene-1,2-disulfonamide]",1.563 µM,0.7813 µM,–,0.7813 µM,–
"NC[C@H](N)CNS(=O)(=O)c1ccc(-c2cccc(-c3c[nH]c(N)n3)c2)c(-c2nn[nH]n2)c1S(N)(=O)=O [Example 434, (S)-3′-(2-amino-1H-imidazol-4-yl)-N^4-(2,3-diaminopropyl)-2-(2H-tetrazol-5-yl)-[1,1′-biphenyl]-3,4-disulfonamide]",1.563 µM,0.7813 µM,–,1.563 µM,–
"NCCNS(=O)(=O)c1ccc(-c2ccc3nccn3c2)c(-c2nn[nH]n2)c1S(N)(=O)=O [Example 401, N^1-(2-aminoethyl)-4-(imidazo[1,2-a]pyridin-6-yl)-3-(2H-tetrazol-5-yl)benzene-1,2-disulfonamide]",1.563 µM,0.7813 µM,–,–,–
"NCCNC(=O)c1cc(Cl)cc(-c2ccc(S(=O)(=O)NCCN)c(S(N)(=O)=O)c2-c2nn[nH]n2)c1N [Example 447, 2-Amino-N-(2-aminoethyl)-4′-(N-(2-aminoethyl)sulfamoyl)-5-chloro-3′-sulfamoyl-2′-(2H-tetrazol-5-yl)-[1,1′-biphenyl]-3-carboxamide]",1.563 µM,0.7813 µM,–,0.7813 µM,–
"NCCNS(=O)(=O)c1ccc(-c2cccc(C(=O)N[C@@H]3CNC[C@H]3O)c2)c(-c2nn[nH]n2)c1S(N)(=O)=O [Example 344, 4′-(N-(2-aminoethyl)sulfamoyl)-N-((3R,4R)-4-hydroxypyrrolidin-3-yl)-3′-sulfamoyl-2′-(2H-tetrazol-5-yl)-[1,1′-biphenyl]-3-carboxamide]",1.563 µM,0.7813 µM,–,1.563 µM,–
"NCC(F)(F)c1nc2c(-c3ccc(S(=O)(=O)N[C@H]4CCNC4)c(S(N)(=O)=O)c3-c3nn[nH]n3)cccc2[nH]1 [Example 446, (S)-4-(2-(2-amino-1,1-difluoroethyl)-1H-benzo[d]imidazol-4-yl)-N1-(pyrrolidin-3-yl)-3-(2H-tetrazol-5-yl)benzene-1,2-disulfonamide]",3.125 µM,1.563 µM,–,3.125 µM,–
"C[C@@H](N)CNS(=O)(=O)c1ccc(-c2cccc3sc(N)nc23)c(-c2nn[nH]n2)c1S(N)(=O)=O [Example 390, 4-(2-amino-1,3-benzothiazol-4-yl)-N^1-[(2R)-2-aminopropyl]-3-(2H-tetrazol-5-yl)benzene-1,2-disulfonamide]",3.125 µM,3.125 µM,–,1.563 µM,–
"NCCNC(=O)c1cc(-c2ccc(S(=O)(=O)NCCN)c(S(N)(=O)=O)c2-c2nn[nH]n2)ccc1N [Example 451, 4-Amino-N-(2-aminoethyl)-4′-(N-(2-aminoethyl)sulfamoyl)-3′-sulfamoyl-2′-(2H-tetrazol-5-yl)-[1,1′-biphenyl]-3-carboxamide]",0.7813 µM,0.7813 µM,–,0.7813 µM,–
"Nc1nc2c(-c3ccc(S(=O)(=O)N[C@H]4CCNC4)c(S(N)(=O)=O)c3-c3nn[nH]n3)cc(F)cc2[nH]1 [Example 399, (S)-4-(2-amino-6-fluoro-1H-benzo[d]imidazol-4-yl)-N^1-(pyrrolidin-3-yl)-3-(2H-tetrazol-5-yl)benzene-1,2-disulfonamide]",1.563 µM,0.7813 µM,–,1.563 µM,–
"Nc1ncc(-c2cc(-c3ccc(S(=O)(=O)N[C@@H]4CCNC4)c(S(N)(=O)=O)c3-c3nnn[nH]3)ccn2)[nH]1 [Example 440, (R)-4-(2-(2-Amino-1H-imidazol-5-yl)pyridin-4-yl)-N^1-(pyrrolidin-3-yl)-3-(1H-tetrazol-5-yl)benzene-1,2-disulfonamide]",1.563 µM,0.7813 µM,–,1.563 µM,–
NCc1nc(-c2cccc(-c3ccc(S(=O)(=O)N[C@H]4CNC[C@H]4N)c(S(N)(=O)=O)c3-c3nn[nH]n3)c2)c[nH]1 [Example 462],1.563 µM,1.563 µM,–,1.563 µM,–
"NC[C@@]1(NS(=O)(=O)c2ccc(-c3ccc(N)nc3)c(-c3nn[nH]n3)c2S(N)(=O)=O)CCNC1 [Example 487, (S)-N1-(3-(aminomethyl)pyrrolidin-3-yl)-4-(6-aminopyridin-3-yl)-3-(2H-tetrazol-5-yl)benzene-1,2-disulfonamide dihydrochloride]",1.563 µM,–,1.00,0.7813 µM,–
"Nc1ccc(-c2ccc(S(=O)(=O)NC[C@H](N)CO)c(S(N)(=O)=O)c2-c2nn[nH]n2)cn1 [Example 297, (S)—N^1-(2-amino-3-hydroxypropyl)-4-(6-aminopyridin-3-yl)-3-(2H-tetrazol-5-yl) benzene-1,2-disulfonamide]",1.563 µM,–,–,0.7813 µM,1.00
"CC1(NS(=O)(=O)c2ccc(-c3cccc4[nH]c(N)nc34)c(-c3nn[nH]n3)c2S(N)(=O)=O)CNC1 [Example 257, 4-(2-amino-1H-benzo[d]imidazol-4-yl)-N1-(3-methylazetidin-3-yl)-3-(2H-tetrazol-5-yl)benzene-1,2-disulfonamide]",0.7813 µM,–,–,0.7813 µM,1.00
"CN(C1CNC1)S(=O)(=O)c1ccc(-c2cccc3[nH]c(N)nc23)c(-c2nn[nH]n2)c1S(N)(=O)=O [Example 255, 4-(2-amino-1H-benzo[d]imidazol-4-yl)-N1-(azetidin-3-yl)-N1-methyl-3-(2H-tetrazol-5-yl)benzene-1,2-disulfonamide]",0.7813 µM,–,–,0.7813 µM,2.00
